Experimental data from the supplement of paper PMC13380429.

What was measured:
Conditions in all cases: 72 h
[1] = tested on: U2OS; experiment: relative viability EC50 (midpoint between 100% and the lowest measured viability); higher = less toxic
[2] = tested on: Vero E6; experiment: as above
[3] = tested on: Caco-2; experiment: as above
[4] = tested on: HepG2; experiment: as above
[5] = tested on: Calu-3; experiment: as above
[6] = tested on: U2OS; experiment: cell viability relative to DMSO; higher = less toxic
[7] = tested on: Vero E6; experiment: as above
[8] = tested on: Caco-2; experiment: as above
[9] = tested on: HepG2; experiment: as above
[10] = tested on: Calu-3; experiment: as above
[11] = tested on: U2OS; experiment: drug sensitivity score (DSS) for viability; higher = more toxic; extreme values may be limits of the assay
[12] = tested on: Vero E6; experiment: as above
[13] = tested on: Caco-2; experiment: as above
[14] = tested on: HepG2; experiment: as above
[15] = tested on: Calu-3; experiment: as above

Structure (SMILES) | relative viability EC50 [1] [µM] | relative viability EC50 [2] [µM] | relative viability EC50 [3] [µM] | relative viability EC50 [4] [µM] | relative viability EC50 [5] [µM] | cell viability ([6]; 1 nM) [%] | cell viability ([6]; 10 nM) [%] | cell viability ([6]; 100 nM) [%] | cell viability ([6]; 1000 nM) [%] | cell viability ([6]; 10000 nM) [%] | cell viability ([7]; 1 nM) [%] | cell viability ([7]; 10 nM) [%] | cell viability ([7]; 100 nM) [%] | cell viability ([7]; 1000 nM) [%] | cell viability ([7]; 10000 nM) [%] | cell viability ([8]; 1 nM) [%] | cell viability ([8]; 10 nM) [%] | cell viability ([8]; 100 nM) [%] | cell viability ([8]; 1000 nM) [%] | cell viability ([8]; 10000 nM) [%] | cell viability ([9]; 1 nM) [%] | cell viability ([9]; 10 nM) [%] | cell viability ([9]; 100 nM) [%] | cell viability ([9]; 1000 nM) [%] | cell viability ([9]; 10000 nM) [%] | cell viability ([10]; 1 nM) [%] | cell viability ([10]; 10 nM) [%] | cell viability ([10]; 100 nM) [%] | cell viability ([10]; 1000 nM) [%] | cell viability ([10]; 10000 nM) [%] | drug sensitivity score [11] | drug sensitivity score [12] | drug sensitivity score [13] | drug sensitivity score [14] | drug sensitivity score [15]
NCCCC[C@H](NC(=O)[C@@H](Cc1cc(Br)c(O)c(Br)c1)NC(=O)N1CCC(N2Cc3ccccc3NC2=O)CC1)C(=O)N1CCN(c2ccncc2)CC1 [BIBN4096] | > 10 | > 10 | > 10 | > 10 | > 10 | 95.8 | 98.5 | 94.8 | 84.5 | 91.6 | 102 | 97.2 | 98.6 | 99.1 | 104 | 88.6 | 97 | 101 | 90.3 | 100 | 102 | 97.2 | 92.4 | 97.5 | 102 | 93.7 | 96.9 | 100 | 110 | 105 | 0.3 | 0 | 0 | 0 | 0
OC[C@@H](O)[C@@H](O[C@@H]1O[C@H](CO)[C@H](O)[C@H](O)[C@H]1O)[C@H](O)[C@@H](O)CO [D-LACTITOL MONOHYDRATE] | > 10 | > 10 | > 10 | > 10 | > 10 | 101 | 96.9 | 95.6 | 99.8 | 103 | 100 | 98.6 | 95.4 | 92.8 | 99.3 | 92.3 | 92.3 | 98.6 | 103 | 97.2 | 94 | 105 | 96.2 | 89.2 | 97.4 | 106 | 94.9 | 99.6 | 96.3 | 93.5 | 0 | 0 | 0 | 0 | 0
c1cc(-c2sc(-c3ccncc3)c(-c3ccncc3)c2-c2ccncc2)ccn1 [GANT-58] | > 10 | > 10 | > 10 | > 10 | > 10 | 102 | 99.2 | 99.8 | 97.8 | 99.2 | 93 | 106 | 91.7 | 96.4 | 111 | 105 | 99 | 94.6 | 92.6 | 86.6 | 90.9 | 102 | 97.8 | 118 | 103 | 98.3 | 94.8 | 95.3 | 88.5 | 106 | 0 | 0 | 0.2 | 0 | 0
CCCc1ncc(C[n+]2ccccc2C)c(N)n1 [amprolium] | > 10 | > 10 | > 10 | > 10 | > 10 | 101 | 97.2 | 102 | 100 | 104 | 100 | 108 | 92.8 | 112 | 102 | 112 | 94.9 | 88.5 | 90.5 | 99.9 | 96.4 | 103 | 89.2 | 97.1 | 92.1 | 104 | 97.2 | 99.5 | 101 | 107 | 0 | 0 | 0.9 | 0 | 0
CN1C/C=C/CCOc2cccc(c2)-c2ccnc(n2)Nc2cccc(c2)C1 [TG-02] | 0.204 | 0.297 | 0.105 | 0.207 | 0.167 | 102 | 101 | 86 | 2.5 | 1.8 | 99.4 | 97.8 | 90 | 13.6 | 5.6 | 89.8 | 88.2 | 70.4 | 28.4 | 38.9 | 111 | 104 | 79.2 | 9.1 | 3.2 | 97.1 | 97.7 | 87.7 | 43.4 | 51.8 | 20 | 17.1 | 16.2 | 19.3 | 12.4
CC(C)CN(C[C@@H](O)[C@H](Cc1ccccc1)NC(=O)O[C@H]1CCOC1)S(=O)(=O)c1ccc(N)cc1 [amprenavir] | > 10 | > 10 | > 10 | > 10 | > 10 | 106 | 97.8 | 96.5 | 98.6 | 101 | 110 | 102 | 93.9 | 101 | 93.4 | 103 | 100 | 106 | 87.2 | 87.7 | 114 | 88.9 | 92.7 | 96.5 | 87.7 | 101 | 102 | 99.3 | 97.7 | 107 | 0 | 0 | 0.6 | 0 | 0
Cc1c(-c2ccnn2C)cc(C(=O)NCc2ccc(S(C)(=O)=O)cn2)c(=O)n1-c1cccc(C(F)(F)F)c1 [AZD9668] | > 10 | > 10 | > 10 | > 10 | > 10 | 97 | 93.6 | 102 | 95.7 | 102 | 97.3 | 102 | 89.7 | 92.2 | 107 | 93.9 | 101 | 106 | 96.9 | 101 | 101 | 102 | 98 | 108 | 103 | 94.5 | 103 | 99.9 | 92.9 | 97.1 | 0 | 0 | 0 | 0 | 0
COc1cccc(CN(C(=O)CC(C)(C)C)[C@H]2C[C@@H](C(=O)N3CCNCC3)N(Cc3ccc4c(c3)OCO4)C2)c1 | > 10 | > 10 | > 10 | > 10 | > 10 | 95.2 | 98 | 97.3 | 97 | 90.7 | 101 | 102 | 107 | 98.2 | 95.6 | 98.4 | 106 | 98.3 | 102 | 87.5 | 94.8 | 96.2 | 87.2 | 104 | 91.4 | 93.6 | 98 | 95.3 | 92.4 | 102 | 0 | 0 | 0 | 0 | 0
N=C(N)SCc1ccc(B(O)O)cc1 [BC-11] | > 10 | > 10 | > 10 | > 10 | > 10 | 102 | 102 | 98.8 | 97.1 | 97.1 | 108 | 96.6 | 97.9 | 101 | 99.8 | 102 | 101 | 96.1 | 108 | 92.4 | 107 | 99.7 | 99.8 | 88.6 | 92.8 | 92.3 | 101 | 105 | 107 | 99.6 | 0 | 0 | 0 | 0.4 | 0
CC1(C)Oc2ccc(C#N)cc2[C@@H](OC2=CC(=O)CC2)[C@@H]1O [PCO-400] | > 10 | > 10 | > 10 | > 10 | > 10 | 107 | 95.8 | 98.8 | 90.6 | 99.8 | 102 | 97.3 | 97.7 | 102 | 94.6 | 113 | 90.5 | 99.6 | 92.8 | 103 | 101 | 97 | 109 | 105 | 86.9 | 96.6 | 95.9 | 110 | 102 | 103 | 0 | 0 | 0 | 0 | 0
CN1C(=O)C[C@@H](C(=O)N[C@@H](Cc2c[nH]cn2)C(=O)N2CCC[C@H]2C(N)=O)NC1=O [taltirelin] | > 10 | > 10 | > 10 | > 10 | > 10 | 105 | 96.2 | 99.5 | 98.1 | 101 | 99 | 96.8 | 104 | 97.4 | 98.3 | 101 | 100 | 97.2 | 97.6 | 95.9 | 106 | 99.6 | 99 | 104 | 108 | 96.3 | 94.7 | 101 | 97.8 | 84.9 | 0 | 0 | 0 | 0 | 0.5
COc1cc(C(=O)NC2CCCNC2)cc(OC)c1OC (stereo not given) [troxipide] | > 10 | > 10 | > 10 | > 10 | > 10 | 106 | 96.3 | 102 | 98.8 | 101 | 103 | 109 | 101 | 102 | 98.4 | 99 | 103 | 98.4 | 97.4 | 99.6 | 103 | 109 | 97.4 | 103 | 104 | 97.5 | 91.3 | 94 | 106 | 97.8 | 0 | 0 | 0 | 0 | 0
C[C@H]1C[C@@H]2[C@H]([C@@H](O)C[C@@]3(C)[C@H]2CC[C@]3(O)C(=O)CO)[C@@]2(C)C=CC(=O)C=C12 [methylprednisolone] | > 10 | > 10 | > 10 | > 10 | > 10 | 102 | 97.9 | 91.4 | 98.9 | 95.2 | 104 | 103 | 96.6 | 106 | 101 | 96 | 108 | 90.3 | 99.3 | 98.4 | 109 | 107 | 103 | 98.5 | 104 | 105 | 102 | 99.3 | 99.6 | 106 | 0 | 0 | 0 | 0 | 0
COCCCC/C(=N\OCCN)c1ccc(C(F)(F)F)cc1 [fluvoxamine] | > 10 | > 10 | > 10 | > 10 | > 10 | 104 | 97.3 | 98 | 96.4 | 98.5 | 91.6 | 103 | 98.1 | 101 | 88 | 124 | 109 | 84.3 | 80.6 | 94.1 | 99.3 | 93.5 | 100 | 105 | 100 | 102 | 109 | 95.6 | 96.5 | 93.7 | 0 | 0 | 4 | 0 | 0
